The test system of one series is MOLM13 cells. As to the kind of experiment: Cytotoxicity against MOLM13 cells. The series is classed as cell-based. The note with it: MOLM13 cells, read-out: IC50. From the text:
(§1) Through amide coupling using I-ethyl-3-carbodiimide hydrochloride (EDC.HCl), the alkynyl derivatives of 4.16, 4.29 and 4.30 were synthesized. Using these VIP152-derivatives, degraders 4.31, 4.33 and 4.34 were synthesized using click chemistry. Degrader 4.32 was also synthesized using amide coupling conditions with (1-[Bis([…])methylene]-1H-1,2,3-triazolo[4,5-b]pyridinium 3-oxide hexafluorophosphate (HATU) and the carboxylic acid 4.28. Scheme 7 illustrates the synthesis of this initial series. The series was evaluated for cytotoxicity against MOLM13 cells (IC50) and for their CDK9 degradation potency (DC50). The results are provided in Table 3.

The target of series [1] is T1, CDK9 (Homo sapiens, UniProt P50750+Q96SW2).
T1 construct: endogenous in cells
As to the kind of experiment: CDK9 degradation potency (DC50) of VIP152-based degraders. The class given is cell-based. The note with it: VIP152-based series.
From the text: as §1

The nature of series [2]: Chromatographic log D determination (log k′80). The class given is physicochemical. The note with it: chromatographic log D, PLRP-S column, pH 7.72. Here is the method:
Chromatographic Log D Determination. Test samples were prepared from 10 mM stock solutions in DMSO, to make 122 μM solutions in acetonitrile. Retention times were determined on a Shimadzu High Performance Liquid Chromatography (HPLC) system with Agilent PLRP-S column, 100 Å, 5 um particle size, 50×4.6 mm (part no.: PL1512-1500) with 1 mL/min flow rate. A 65 mM aqueous solution of ammonium acetate was prepared in water and diluted with acetonitrile to give 0.1% ammonium acetate 20:80 acetonitrile solution with pH 7.72. Eluents were detected with UV spectrophotometry at 337 nm. As a standard set, the retention times of β-estradiol, nifedipine, quinoline, phenol and 2-nitrophenol were determined (log k′80) and the dead time was extrapolated based on the reported log k′80 values originally reported by Caron et. al (log k′80*). The average value of the dead time for the standard set was 0.3001 minutes. Therefore, for consistency, 0.3 minutes was used as the dead time for all test samples. Experiments were performed in triplicate with a maximum percent standard deviation of 6.85%.

A further series is described as follows: Kinetic solubility assay. The note with it: kinetic solubility, PBS pH 7.4; for solubility at 1.5 h: phosphate buffered saline, pH 7.4, aqueous buffer, kinetic from dmso stock, Solubility (μM).
The next series deals with MV411 cells. As to the kind of experiment: MTS cytotoxicity assay against MV411 cells. The class given is cell-based. The note with it: Homo sapiens, MV4-11. Here is the method:
(§2) The obtained compounds were tested in biological experiments to measure their potency in inhibiting the growth of AML cells and in their degradation of CDK9. These measurements are reported as half-maximum growth inhibitory and half-maximum degradation concentrations, IC50s and DC50s, respectively. Maximum percent degradation (Dmax) values were also obtained during the CDK9 degradation assessments. The common MTS assay was used to acquire the IC50 values, while the DC50 values were obtained using an automated western blot experiment. These values are presented in Table 2, along with pIC50 (log(nM IC50)) to more accurately reflect the differences/lack thereof in in vitro cytotoxicity. The notation “N:N*” represents the number of linker atoms on each side of the rigid triazole ring for a given degrader. Predicted log D values, calculated using the ChemAxon […], are also provided for each degrader. To characterize the physicochemical properties of the new degrader series, two additional assays were performed: a kinetic aqueous solubility assay and the chromatographic log D experiment described earlier. Aqueous solubility is shown in μM while experimentally determined log D is shown as log k′80. Details regarding the execution of each experiment are provided below.

The target in series [3] is T1, CDK9. The experiment in a line: CDK9 degradation, automated western blot, triazole-containing AT7519 degraders (MV411). The class given is cell-based. The note with it: for DC50: CDK9 degradation, MV411 cells; for Dmax: MV4-11, maximum percent CDK9 degradation. The procedure: as §2
[4] abbreviates: Homo sapiens, MOLM-13, cytotoxicity.
[5] abbreviates: defined as log(nM IC50), MV411, read-out: pIC50 (converted).
The mark [6] stands for this setting: growth inhibition, MV411 cells, MTS, read-out: IC50.

Values after ≈ are worked out from the molar mass of the structure shown. Read-outs that look alike come from different tables or passages of the source.

T1 sequence (P50750 whole entry): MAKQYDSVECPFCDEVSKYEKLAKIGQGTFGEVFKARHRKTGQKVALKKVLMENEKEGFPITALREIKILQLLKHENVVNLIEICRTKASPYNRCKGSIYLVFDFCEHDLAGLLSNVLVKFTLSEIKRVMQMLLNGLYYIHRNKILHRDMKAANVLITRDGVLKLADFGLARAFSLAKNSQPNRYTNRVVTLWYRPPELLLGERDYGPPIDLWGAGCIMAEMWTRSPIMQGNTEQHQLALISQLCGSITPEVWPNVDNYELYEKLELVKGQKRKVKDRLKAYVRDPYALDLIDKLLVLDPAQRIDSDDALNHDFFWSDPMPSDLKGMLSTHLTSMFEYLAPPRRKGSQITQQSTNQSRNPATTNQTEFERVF
T1 sequence (O60563 whole entry partner): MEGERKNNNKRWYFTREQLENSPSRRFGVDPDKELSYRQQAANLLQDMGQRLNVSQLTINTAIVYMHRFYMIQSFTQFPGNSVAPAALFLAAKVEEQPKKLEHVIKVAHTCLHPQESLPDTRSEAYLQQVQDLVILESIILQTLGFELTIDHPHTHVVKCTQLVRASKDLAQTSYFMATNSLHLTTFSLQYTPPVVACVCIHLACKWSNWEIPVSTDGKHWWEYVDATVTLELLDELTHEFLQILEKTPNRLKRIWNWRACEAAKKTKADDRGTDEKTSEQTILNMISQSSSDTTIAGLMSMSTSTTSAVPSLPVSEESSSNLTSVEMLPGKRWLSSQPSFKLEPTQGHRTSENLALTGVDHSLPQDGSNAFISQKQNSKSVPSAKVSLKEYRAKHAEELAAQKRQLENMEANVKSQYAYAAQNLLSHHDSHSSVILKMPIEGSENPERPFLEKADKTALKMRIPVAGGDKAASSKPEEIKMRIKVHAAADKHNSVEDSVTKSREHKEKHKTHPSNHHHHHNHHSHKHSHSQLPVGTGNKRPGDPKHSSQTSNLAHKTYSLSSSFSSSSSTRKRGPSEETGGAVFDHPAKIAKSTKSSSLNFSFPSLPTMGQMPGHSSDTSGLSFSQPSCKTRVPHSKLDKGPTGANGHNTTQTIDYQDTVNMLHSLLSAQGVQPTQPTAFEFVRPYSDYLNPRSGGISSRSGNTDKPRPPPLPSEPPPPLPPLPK
T1 sequence (Q96SW2 whole entry): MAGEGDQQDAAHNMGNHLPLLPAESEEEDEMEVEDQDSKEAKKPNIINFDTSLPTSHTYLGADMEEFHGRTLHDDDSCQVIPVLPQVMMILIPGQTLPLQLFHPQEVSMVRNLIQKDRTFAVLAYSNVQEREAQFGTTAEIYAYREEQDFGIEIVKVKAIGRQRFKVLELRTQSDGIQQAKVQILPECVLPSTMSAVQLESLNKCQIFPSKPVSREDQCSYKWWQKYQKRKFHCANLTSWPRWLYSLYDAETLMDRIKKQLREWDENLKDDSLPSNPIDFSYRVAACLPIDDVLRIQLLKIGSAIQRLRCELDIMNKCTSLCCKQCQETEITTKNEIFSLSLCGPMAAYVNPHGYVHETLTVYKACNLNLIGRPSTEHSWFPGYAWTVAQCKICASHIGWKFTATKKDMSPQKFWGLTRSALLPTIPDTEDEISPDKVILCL
T1 sequence (Q16531 whole entry partner): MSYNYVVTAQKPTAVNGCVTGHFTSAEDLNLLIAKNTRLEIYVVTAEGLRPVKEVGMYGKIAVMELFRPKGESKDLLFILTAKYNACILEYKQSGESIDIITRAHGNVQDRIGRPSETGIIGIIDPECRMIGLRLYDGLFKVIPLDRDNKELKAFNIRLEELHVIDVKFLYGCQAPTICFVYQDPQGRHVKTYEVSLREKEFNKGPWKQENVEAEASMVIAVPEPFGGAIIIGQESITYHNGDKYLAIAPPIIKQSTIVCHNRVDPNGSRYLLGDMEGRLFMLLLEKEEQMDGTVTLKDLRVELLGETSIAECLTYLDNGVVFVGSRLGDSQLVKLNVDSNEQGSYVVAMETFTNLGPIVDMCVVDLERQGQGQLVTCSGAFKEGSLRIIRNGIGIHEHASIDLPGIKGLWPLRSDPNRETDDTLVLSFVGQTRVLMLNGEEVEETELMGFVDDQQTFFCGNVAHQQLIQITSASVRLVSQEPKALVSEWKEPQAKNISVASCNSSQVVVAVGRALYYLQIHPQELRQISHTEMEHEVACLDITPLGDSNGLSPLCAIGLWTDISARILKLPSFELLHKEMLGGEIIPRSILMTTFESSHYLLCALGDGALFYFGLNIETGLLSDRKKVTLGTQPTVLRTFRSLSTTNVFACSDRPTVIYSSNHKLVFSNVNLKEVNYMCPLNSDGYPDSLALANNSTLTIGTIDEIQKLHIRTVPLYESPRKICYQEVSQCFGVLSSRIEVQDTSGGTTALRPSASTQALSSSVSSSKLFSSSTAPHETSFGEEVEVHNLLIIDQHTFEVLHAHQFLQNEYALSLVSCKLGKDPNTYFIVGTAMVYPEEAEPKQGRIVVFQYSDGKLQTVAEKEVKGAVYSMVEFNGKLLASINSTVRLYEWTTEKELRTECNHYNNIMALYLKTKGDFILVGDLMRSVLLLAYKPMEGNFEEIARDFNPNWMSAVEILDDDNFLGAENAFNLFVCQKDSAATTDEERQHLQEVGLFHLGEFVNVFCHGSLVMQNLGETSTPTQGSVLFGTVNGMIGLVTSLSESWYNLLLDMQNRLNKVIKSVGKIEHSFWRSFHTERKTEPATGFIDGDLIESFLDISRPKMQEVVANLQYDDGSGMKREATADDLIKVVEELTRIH
Protocol for Kinetic solubility assay: Kinetic Solubility Assay. Kinetic solubility (KS) was measured according to Millipore protocol PC2445 EN00. Test compounds were weighed and diluted with DMSO to 10 mM. From the stock solutions as well as blank (100% DMSO) was taken 17.5 μL and diluted to 500 μM with 332.5 μL of 100 mM phosphate Buffered Saline (PPBS) at pH 7.4 in a 96-well quartz plate. From the 500 μM solutions was taken 150 μL and dispensed into a 96-well Millipore filter plate (Product number: MSSLBPC10). In the quartz plate, serial dilutions were performed down to 0.5 μM using the 100 mM PBS solution, leaving 100 μL of each test sample at 11 different concentrations, representing standards. These steps were performed in triplicate, at minimum, for each test compound. Both plates were shaken on an orbital shaker at 150 rpm for 1.5 hours. The contents of the filter plate were filtered and 100 μL of the filtrate from each well was dispensed into the quartz plate containing standards. The quartz plate was then analyzed using a UV plate reader where absorbance was measured at the relevant wavelength for each compound. After blank subtraction, for each test sample, solubility was determined based on the optical density of filtered samples and the equations derived from the corresponding linear standard curve.

For orientation: DC50 means the midpoint of the concentration-degradation curve. High values mean degradation only at high concentration, low ones degradation at low concentration. What is called solubility is the concentration that dissolves in the medium under given conditions. Read a low solubility as little dissolved substance. With `COc1cc(F)ccc1-c1cc(Nc2cc(CS(C)(=O)=NC(=O)CCC(=O)N3CC(N4CCC(Cn5cc(CNC(=O)CNc6cccc7c6C(=O)N(C6CCC(=O)NC6=O)C7=O)nn5)CC4)C3)ccn2)ncc1F` (stereo not shown) [Compound 4.90, 4-{3-[4-({4-[(2˜ {[2˜ (2,6-dioxopiperidin-3-yl)-1,3-dioxo-2,3-dihydro-1H-isoindol-4-yl]amino}acetamido)methyl]-1H-1,2,3-triazol-1-yl}methyl)piperidin-1-yl]azetidin-1-yl}-N-{[(2-{[5-fluoro-4-(4-fluoro-2-methoxyphenyl)pyridin-2-yl]amino}pyridin-4-yl)methyl](methyl)oxo-λ^6-sulfanylidene}-4-oxobutanamide], the IC50 in the series on MOLM13 cells (setting [4]) was found to be 1380 nM. This molecule displayed a 50% degradation concentration (DC50) at CDK9 [1] of 900 nM. Also, the “logk′80” value in series [2] turned out to be 0.07. This molecule also came in with a solubility at 1.5 h in the series “Kinetic solubility assay” of 8.3 µM (≈ 8.72 µg/mL).
Regarding `COc1cc(F)ccc1-c1cc(Nc2cc(CS(C)(=O)=NC(=O)C3CCCN(Cc4cn(CC(=O)N5CCC(C#Cc6cccc7c6C(=O)N(C6CCC(=O)NC6=O)C7=O)CC5)nn4)C3)ccn2)ncc1F` (stereo not shown) [Compound 4.75, 1-({1-[2-(4-{2-[2-(2,6-dioxopiperidin-3-yl)-1,3-dioxo-2,3-dihydro-1H-isoindol-4-yl]ethynyl}piperidin-1-yl)-2-oxoethyl]-1H-1,2,3-triazol-4-yl}methyl)-N-{[1 (2-{[5-fluoro-4-(4-fluoro-2-methoxyphenyl)pyridin-2-yl]amino}pyridin-4-yl)methyl](methyl)oxo-λ^6-sulfanylidene}piperidine-3-carboxamide], the IC50 in the series with MOLM13 cells (setting [4]) is 1480 nM. Moreover, on CDK9 [1], the DC50 turned out to be 1620 nM. Moreover, the “logk′80” value in series [2] is given as 0.18. The solubility at 1.5 h in “Kinetic solubility assay” was 4.8 µM (≈ 4.81 µg/mL).
What is called Solubility is the concentration that dissolves in the medium under given conditions. Read a low Solubility as little dissolved substance. Regarding `COc1cc(F)ccc1-c1cc(Nc2cc(CS(C)(=O)=NC(=O)CN3CCC(c4cn(C5CN(c6cccc7c6C(=O)N(C6CCC(=O)NC6=O)C7=O)C5)nn4)CC3)ccn2)ncc1F` (stereo not shown) [Compound 4.60, 2-(4-(1-(1-(2-(2,6-dioxopiperidin-3-yl)-1,3-dioxoisoindolin-4-yl)azetidin-3-yl)-1H-1,2,3-triazol-4-yl)piperidin-1-yl)-N-(((2-((5-fluoro-4-(4-fluoro-2-methoxyphenyl)pyridin-2-yl)amino)pyridin-4-yl)methyl)(methyl)(oxo)-16-sulfaneylidene)acetamide], in the series on MOLM13 cells (cytotoxicity), the IC50 was determined as 1910 nM. Also, the DC50 at CDK9 [1] amounted to 1660 nM. In addition, the “logk′80” value in series [2] came to 0.16. Moreover, the “Solubility” value in “Kinetic solubility assay” was 4.1 µM (≈ 3.72 µg/mL).
As to `COc1cc(F)ccc1-c1cc(Nc2cc(CS(C)(=O)=NC(=O)CCc3cn(CC4CCN(C5CN(C(=O)CNc6cccc7c6C(=O)N(C6CCC(=O)NC6=O)C7=O)C5)CC4)nn3)ccn2)ncc1F` (stereo not shown) [Compound 4.89, 3-(1-((1-(1-((2-(2,6-dioxopiperidin-3-yl)-1,3-dioxoisoindolin-4-yl)glycyl)azetidin-3-yl)piperidin-4-yl)methyl)-1H-1,2,3-triazol-4-yl)-N-(((2-((5-fluoro-4-(4-fluoro-2-methoxyphenyl)pyridin-2-yl)amino)pyridin-4-yl)methyl)(methyl) (oxo)-26-sulfaneylidene) propanamide], the IC50 in the series on MOLM13 cells (setting [4]) came out at 170 nM. On CDK9 [1], this molecule registered a DC50 of 80 nM. Further, the “logk′80” value in series [2] worked out at 0.09. Further, the solubility at 1.5 h in the series “Kinetic solubility assay” amounted to 1.8 µM (≈ 1.79 µg/mL).
One may read the Dmax as the largest share of the target that was removed. A higher Dmax goes with deep degradation. Turning to `O=C1CCC(N2C(=O)c3cccc(OCCCn4cc(CCCCCCN5CCC(NC(=O)c6n[nH]cc6NC(=O)c6c(Cl)cccc6Cl)CC5)nn4)c3C2=O)C(=O)N1` (stereo not shown) [Compound 4.8c, 4-(2,6-dichlorobenzamido)-N-(1-(6-(1-(3-((2(2,6-dioxopiperidin-3-yl)-1,3-dioxoisoindolin-4-yl)oxy)propyl)-1H-1,2,3-triazol-4-yl)hexyl)piperidin-4-yl)-1H-pyrazole-3-carboxamide], the IC50 in the series on MV411 cells (setting [5]) is 79.4 nM; with MV411 cells (setting [6]), 71.3 nM. This molecule also had a DC50 on CDK9 [3] of 98.9 nM. The molecule further showed a Dmax on CDK9 [3] of 75.3%. Besides, in series [2], the “logk′80” value came to 0.116. The same molecule gave a solubility at 1.5 h in the series “Kinetic solubility assay” of 12.9 µM (≈ 10.9 µg/mL).
For `COc1cc(F)ccc1-c1cc(Nc2cc(CS(C)(=O)=NC(=O)CN3CCN(Cc4cn(CC(=O)N5CCN(CC#Cc6cccc7c6C(=O)N(C6CCC(=O)NC6=O)C7=O)CC5)nn4)CC3)ccn2)ncc1F` (stereo not shown) [Compound 4.51, 2-(4-((1-(2-(4-(3-(2-(2,6-dioxopiperidin-3-yl)-1,3-dioxoisoindolin-4-yl)prop-2-yn-1-yl)piperazin-1-yl)-2-oxoethyl)-1H-1,2,3-triazol-4-yl)methyl)piperazin-1-yl)-N-(((2-((5-fluoro-4-(4-fluoro-2-methoxyphenyl)pyridin-2-yl)amino)pyridin-4-yl)methyl)(methyl)(oxo)-16-sulfaneylidene)acetamide], the IC50 in the series on MOLM13 cells (cytotoxicity) was determined as 1540 nM. In addition, the DC50 at CDK9 [1] worked out at 370 nM. The “logk′80” value in series [2] turned out to be 0.09. Moreover, the “Solubility” value in “Kinetic solubility assay” amounted to 14.8 µM (≈ 15.3 µg/mL).
For `O=C1CCC(N2C(=O)c3cccc(OCCCCCCCn4cc(CCCCCCN5CCC(NC(=O)c6n[nH]cc6NC(=O)c6c(Cl)cccc6Cl)CC5)nn4)c3C2=O)C(=O)N1` (stereo not shown) [Compound 4.9a, 4-(2,6-dichlorobenzamido)-N-(1-(6-(1-(7-((2-(2,6-dioxopiperidine-3-yl)-1,3-dioxoisoindolin-4-yl)oxy)heptyl)-1H-1,2,3-triazol-4-yl)hexyl)piperidin-4-yl)-1H-pyrazole-3-carboxamide], in the series with MV411 cells (setting [5]), the IC50 is 79.4 nM. The IC50 with MV411 cells (setting [6]) was 72.8 nM. At CDK9 [3], this molecule came in with a DC50 of 74.6 nM and a maximal degradation (Dmax) of 86.2%. Besides, the “logk′80” value in series [2] is recorded as 0.184. Moreover, the solubility at 1.5 h in “Kinetic solubility assay” came to 2.38 µM (≈ 2.15 µg/mL).
Regarding `COc1cc(F)ccc1-c1cc(Nc2cc(CS(C)(=O)=NC(=O)CN3CCC(COc4cccc5c4C(=O)N(C4CCC(=O)NC4=O)C5=O)CC3)ccn2)ncc1F` (stereo not shown) [Compound 4.79, 2-[4-({[2-(2,6-dioxopiperidin-3-yl)-1,3-dioxo-2,3-dihydro-1H-isoindol-4-yl]oxy}methyl)piperidin-1-yl]-N-{[(2-{[5˜fluoro-4-(4-fluoro-2-methoxyphenyl)pyridin-2-yl]amino}pyridin-4-yl)methyl](methyl)oxo-26-sulfanylidene}acetamide], in the series with MOLM13 cells (setting [4]), the IC50 turned out to be 190 nM. This molecule had a DC50 on CDK9 [1] of 360 nM. In series [2], the “logk′80” value is listed as 0.20. Besides, in the series “Kinetic solubility assay”, the concentration in solution (solubility at 1.5 h) was 3.1 µM (≈ 2.53 µg/mL).
Take `COc1cc(F)ccc1-c1cc(Nc2cc(CS(C)(=O)=NC(=O)C3CCCN(Cc4cn(CC(=O)N5CCN(CCCc6cccc7c6C(=O)N(C6CCC(=O)NC6=O)C7=O)CC5)nn4)C3)ccn2)ncc1F` (stereo not shown) [Compound 4.73, 1-({1-[2-(4-{3-[2-(2,6-dioxopiperidin-3-yl)-1,3-dioxo-2,3-dihydro-1H-isoindol-4-yl]propyl}piperazin-1-yl)-2-oxoethyl]-1H-1,2,3-triazol-4-yl}methyl)-N-{[1 (2-{[5-fluoro-4-(4-fluoro-2-methoxyphenyl)pyridin-2-yl]amino}pyridin-4-yl)methyl](methyl)oxo-λ^6-sulfanylidene}piperidine-3-carboxamide]: the IC50 with MOLM13 cells (setting [4]) was found to be 700 nM. Further, the DC50 at CDK9 [1] was determined as 2630 nM. The “logk′80” value in series [2] was determined as 0.13. In addition, the solubility at 1.5 h in “Kinetic solubility assay” turned out to be 3.5 µM (≈ 3.57 µg/mL).

For the origin of these results see US20250236607A1, “CYCLIN-DEPENDENT KINASE 9 (CDK9) DEGRADERS AND METHODS OF USING THEREOF” (OHIO STATE INNOVATION FOUNDATION, priority 2022, published 2025).
